Test results published in patent publication US8404691B2, “Imidazothiazole derivatives having proline ring structure” (Daiichi Sankyo Company, Limited, priority 2009, dated 2013).

Experiments:
[1] = test system: human lung cancer-derived cell line NCI-H460 having wild-type p53; assay: Cell growth inhibition assay (MTT); type: cell-based; details: 72 h, NCI-H460 cells, culturing 3 days, read-out: anti-cellular effect GI50 (50% growth inhibition concentration)
Method: A cell growth inhibition assay was conducted using human lung cancer-derived cell line NCI-H460 having wild-type p53.
NCI-H460 cells were suspended in a medium (RPMI1640 medium containing 10% fetal bovine serum) and the suspension was inoculated in an amount of 500 cells/150 μL/well to a 96-well multiwell plate. A test compound was dissolved in DMSO and this solution was diluted with medium to prepare a sample solution (DMSO concentration: 1% or lower). On the next day of inoculation, medium nonsupplemented with the test compound or the sample solution was added in an amount of 50 μL/well. The MTT assay was conducted immediately after the medium was added in an amount of 50 μL on the next day of cell inoculation, and after the sample solution or the medium was added to cells followed by culturing at 37° C. for 3 days in a 5% CO2 atmosphere. The MTT assay was conducted as shown below.
A 5 mg/mL MTT (3-(4,5-dimethylthiazol-2-yl)-2,5-diphenyltetrazolium bromide, Sigma-Aldrich Co., M-2128) solution was prepared using a phosphate buffer solution (Dulbecco's Phosphate-buffered Saline). This MTT solution was added in an amount of 20 μL/well. Then, the plate was cultured at 37° C. for 4 hours in a 5% CO2 atmosphere. The plate was centrifuged at 1200 rpm for 5 minutes and then the culture supernatant was removed by aspiration using a dispenser. DMSO was added in an amount of 150 μL/well to dissolve generated formazan. The plate was stirred using a plate mixer for uniform color development from each well. The absorbance of each well was measured under conditions of OD 540 nm and reference 660 nm using a plate reader (SpectraMax PLUS384, Molecular Devices, CA, USA).
The OD value measured on the day of adding the sample solution was defined as S. The OD value measured three days after addition of the sample solution was defined as T. The OD value measured three days after addition of the DMSO dilution was defined as C. T/C (%) was determined at each concentration according to the calculation formula shown below to prepare a dose response curve, from which 50% growth inhibition concentration (GI50 value) was calculated. T/C(%)=(T−S)/(C−S)×100

Mdm2/p53 binding = biological target: T1, Mdm2/p53 binding (Homo sapiens, UniProt Q00987, L33E); assay: Mdm2/p53 binding assay (HTRF, His-p53 and GST-Mdm2); details: His-p53 (aa 1-132) and GST-Mdm2 (aa 25-108, L33E), 6.25 nM each, 25° C. for 1 hour
T1 construct: Mdm2 amino acids at positions 25 to 108
T1 sequence (Q00987 25-108 L33E): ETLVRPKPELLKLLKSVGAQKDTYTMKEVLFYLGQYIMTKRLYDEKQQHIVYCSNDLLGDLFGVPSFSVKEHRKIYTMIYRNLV
Method: Next, a test compound was diluted with DMSO to produce protein buffer solution containing 10% dilution, and this buffer solution was added in an amount of 4 μL/well to the plate.
These dilutions were added in an amount of 8 μL/well (total reaction solution volume: 20 μl/well). Then, the plate was left at 25° C. for 1 hour.
The R value calculated from the well supplemented with His-p53, GST-Mdm2, the test compound, and each antibody was defined as R (sample). The R value calculated from the well supplemented with His-p53, GST-Mdm2, and each antibody but without the test compound was defined as R (control). The R value calculated from the well supplemented with GST-Mdm2, the test compound, and each antibody but without His-p53 was defined as R (background). T/C was calculated from the formula shown below. An IC50 value for Mdm2/p53 binding was calculated by sigmoid fitting. T/C=(R(sample)−R(background))/(R(control)−R(background))

[2] = Metabolic stability test (microsomal metabolism); type: in vitro ADME; details: human liver microsomes, 37° C., 30 minutes after addition of NADP+; further: tested at 1.1 µM
Method: 100 μL of 100 mM phosphate buffer solution (pH 7.4) containing 3 μM test compound was added to 100 μL of reaction solution containing 100 mM phosphate buffer solution (pH 7.4), 30 mM glucose 6-phosphate, 10 mM MgCl2.6H2O, 3 units/mL glucose 6-phosphate 1-dehydrogenase, and 0.3 to 1.5 mgP/mL human liver microsomes and the mixture was incubated at 37° C. for 20 minutes. Then, 70 μL of 100 mM phosphate buffer solution (pH 7.4) containing 3 mM NADP+ was added and the mixture was further incubated at 37° C. for 30 minutes to conduct a microsomal metabolism test. The compound was quantified by the internal standard method using a quadrupole mass spectrometer connected to a high performance liquid chromatography apparatus. The metabolic stability (residual percentage of compound: MS %) was determined according to the following formula: MS(human)(%)=(peak area ratio of test compound after addition of NADP+ and incubation for 30 minutes)/(peak area ratio of test compound before addition of NADP+)×100.
(peak area ratio: peak area of test compound divided by that of internal standard substance)

Structure (SMILES)	GI50 [1] [nM]	IC50 (Mdm2/p53 binding) [nM]	MS (human) % (metabolic stability, residual percentage of compound) [2] [%]
CC(C)C1=C(C(=O)N2C[C@H](F)C[C@H]2C(=O)N2CC3(CC3)NC[C@H]2C)SC2=N[C@@](C)(c3ccc(Cl)cc3)[C@@H](c3ccc(Cl)cc3)N21 [Example 20]	< 400	1.4	36
CC(C)C1=C(C(=O)N2C[C@H](F)C[C@H]2C(=O)N2CC3(CC3)NC[C@H]2CO)SC2=N[C@@](C)(c3ccc(Cl)nc3)[C@@H](c3ccc(Cl)c(F)c3)N21 [Example 12, {(6S)-7-[(4R)-1-{[(5R,6S)-5-(4-chloro-3-fluorophenyl)-6-(6-chloropyridin-3-yl)-3-isopropyl-6-methyl-5,6-dihydroimidazo[2,1-b][1,3]thiazol-2-yl]carbonyl}-4-fluoro-L-prolyl]-4,7-diazaspiro[2.5]oct-6-yl}methanol]	400 to 2500	5	69
CC[C@H]1CNC2(CC2)CN1C(=O)[C@@H]1C[C@@H](F)CN1C(=O)C1=C(C(C)C)N2C(=N[C@@](C)(c3ccc(Cl)cc3)[C@H]2c2ccc(Cl)cc2)S1 [Example 21]	< 400	2.2	96
CC[C@H]1CNC2(CC2)CN1C(=O)[C@@H]1C[C@@H](F)CN1C(=O)C1=C(C(C)C)N2C(=N[C@@](C)(c3ccc(Cl)nc3)[C@H]2c2ccc(Cl)c(F)c2)S1 [Example 4, (6S)-7-[(4R)-1-{[(5R,6S)-5-(4-chloro-3-fluorophenyl)-6-(6-chloropyridin-3-yl)-3-isopropyl-6-methyl-5,6-dihydroimidazo[2,1-b][1,3]thiazol-2-yl]carbonyl}-4-fluoro-L-prolyl]-6-ethyl-4,7-diazaspiro[2.5]octane]			100
CC(C)C[C@@H]1CNC2(CC2)CN1C(=O)[C@@H]1C[C@@H](F)CN1C(=O)C1=C(C(C)C)N2C(=N[C@@](C)(c3ccc(Cl)nc3)[C@H]2c2ccc(Cl)c(F)c2)S1 [Example 7, (6R)-7-[(4R)-1-{[(5R,6S)-5-(4-chloro-3-fluorophenyl)-6-(6-chloropyridin-3-yl)-3-isopropyl-6-methyl-5,6-dihydroimidazo[2,1-b][1,3]thiazol-2-yl]carbonyl}-4-fluoro-L-prolyl]-6-isobutyl-4,7-diazaspiro[2.5]octane]	400 to 2500	3.6	100
CC(C)C1=C(C(=O)N2C[C@H](F)C[C@H]2C(=O)N2CC3(CC3)NC[C@@H]2C)SC2=N[C@@](C)(c3ccc(Cl)cc3)[C@@H](c3ccc(Cl)cc3)N21 [Example 19]	< 400	1.6	93
CC(C)C1=C(C(=O)N2C[C@H](F)C[C@H]2C(=O)N2CC3(CC3)NC[C@H]2C(=O)O)SC2=N[C@@](C)(c3ccc(Cl)nc3)[C@@H](c3ccc(Cl)c(F)c3)N21 [Example 14]	400 to 2500	16	100
CC[C@H]1CNC2(CC2)CN1C(=O)[C@@H]1C[C@@H](F)CN1C(=O)C1=C(C(C)C)N2C(=N[C@@](C)(c3ccc(Cl)nc3)[C@H]2c2ccc(Cl)cc2)S1 [Example 29]	< 400	2.6	96
CC(C)C1=C(C(=O)N2CC(F)(F)C[C@H]2C(=O)N2CC3(CC3)NC[C@H]2C)SC2=N[C@@](C)(c3ccc(Cl)nc3)[C@@H](c3ccc(Cl)c(F)c3)N21 [Example 10, (6R)-7-(1-{[(5R,6S)-5-(4-chloro-3-fluorophenyl)-6-(6-chloropyridin-3-yl)-3-isopropyl-6-methyl-5,6-dihydroimidazo[2,1-b][1,3]thiazol-2-yl]carbonyl}-4,4-difluoro-L-prolyl)-6-methyl-4,7-diazaspiro[2.5]octane]	< 400	14	48
CC(C)C1=C(C(=O)N2C[C@H](F)C[C@H]2C(=O)N2CC3(CC3)NC[C@@H]2C)SC2=N[C@@](C)(c3ccc(Cl)cc3)[C@@H](c3ccc(Cl)c(F)c3)N21 [Example 24]	< 400		89
CC[C@@H]1CNC2(CC2)CN1C(=O)[C@@H]1C[C@@H](F)CN1C(=O)C1=C(C(C)C)N2C(=N[C@@](C)(c3ccc(Cl)nc3)[C@H]2c2ccc(Cl)c(F)c2)S1 [Example 6, (6R)-7-[(4R)-1-{[(5R,6S)-5-(4-chloro-3-fluorophenyl)-6-(6-chloropyridin-3-yl)-3-isopropyl-6-methyl-5,6-dihydroimidazo[2,1-b][1,3]thiazol-2-yl]carbonyl}-4-fluoro-L-prolyl]-6-ethyl-4,7-diazaspiro[2.5]octane]			69
CC(C)C1=C(C(=O)N2C[C@H](F)C[C@H]2C(=O)N2CC3(CC3)NC[C@@H]2C)SC2=N[C@@](C)(c3ccc(Cl)nc3)[C@@H](c3ccc(Cl)c(F)c3)N21 [Example 2, (6S)-7-[(4R)-1-{[(5R,6S)-5-(4-chloro-3-fluorophenyl)-6-(6-chloropyridin-3-yl)-3-isopropyl-6-methyl-5,6-dihydroimidazo[2,1-b][1,3]thiazol-2-yl]carbonyl}-4-fluoro-L-prolyl]-6-methyl-4,7-diazaspiro[2.5]octane]			100
CC(C)C1=C(C(=O)N2C[C@H](F)C[C@H]2C(=O)N2CC3(CC3)NC[C@H]2C)SC2=N[C@@](C)(c3ccc(Cl)cc3)[C@@H](c3ccc(Cl)c(F)c3)N21 [Example 25]	< 400		47
CC(C)C1=C(C(=O)N2C[C@H](F)C[C@H]2C(=O)N2CC3(CC3)NC[C@H]2C)SC2=N[C@@](C)(c3ccc(Cl)nc3)[C@@H](c3ccc(Cl)c(F)c3)N21 [Example 3, (6R)-7-[(4R)-1-{[(5R,6S)-5-(4-chloro-3-fluorophenyl)-6-(6-chloropyridin-3-yl)-3-isopropyl-6-methyl-5,6-dihydroimidazo[2,1-b][1,3]thiazol-2-yl]carbonyl}-4-fluoro-L-prolyl]-6-methyl-4,7-diazaspiro[2.5]octane]			68
CC[C@@H]1CN(C(=O)C(F)(F)F)C2(CC2)CN1C(=O)[C@@H]1C[C@@H](F)CN1C(=O)C1=C(C(C)C)N2C(=N[C@@](C)(c3ccc(Cl)nc3)[C@H]2c2ccc(Cl)c(F)c2)S1 [Example 5, (6R)-7-[(4R)-1-{[(5R,6S)-5-(4-chloro-3-fluorophenyl)-6-(6-chloropyridin-3-yl)-3-isopropyl-6-methyl-5,6-dihydroimidazo[2,1-b][1,3]thiazol-2-yl]carbonyl}-4-fluoro-L-prolyl]-6-ethyl-4-(trifluoroacetyl)-4,7-diazaspiro[2.5]octane]	< 400	5.3	
